Test results taken from PubChem BioAssay (NCI).
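How tested: cells in 96-well plates exposed to compound for 48 hours at five concentrations. At the TGI there is no net growth.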

How the values were obtained:
Assay in all cases: inhibition of tumour cell growth, NCI panel, 48 h
786-0 renal = test system: 786-0 renal
A498 renal = test system: A498 renal
ACHN renal = test system: ACHN renal
BT-549 breast = test system: BT-549 breast
CAKI-1 renal = test system: CAKI-1 renal
CCRF-CEM leukemia = test system: CCRF-CEM leukemia
COLO 205 colon = test system: COLO 205 colon
DU-145 prostate = test system: DU-145 prostate
EKVX NSCLC = test system: EKVX NSCLC
HCC-2998 colon = test system: HCC-2998 colon
HCT-116 colon = test system: HCT-116 colon
HCT-15 colon = test system: HCT-15 colon
HL-60(TB) leukemia = test system: HL-60(TB) leukemia
HOP-62 NSCLC = test system: HOP-62 NSCLC
HOP-92 NSCLC = test system: HOP-92 NSCLC
HS 578T breast = test system: HS 578T breast
HT29 colon = test system: HT29 colon
IGROV1 ovarian = test system: IGROV1 ovarian
K-562 leukemia = test system: K-562 leukemia
KM12 colon = test system: KM12 colon
LOX IMVI melanoma = test system: LOX IMVI melanoma
M14 melanoma = test system: M14 melanoma
MCF7 breast = test system: MCF7 breast
MDA-MB-231 breast = test system: MDA-MB-231 breast
MDA-MB-435 = test system: MDA-MB-435
MOLT-4 leukemia = test system: MOLT-4 leukemia
NCI-H226 lung = test system: NCI-H226 lung
NCI-H23 lung = test system: NCI-H23 lung
NCI-H460 lung = test system: NCI-H460 lung
NCI/ADR-RES ovarian = test system: NCI/ADR-RES ovarian
OVCAR-4 ovarian = test system: OVCAR-4 ovarian
OVCAR-8 ovarian = test system: OVCAR-8 ovarian
PC-3 prostate = test system: PC-3 prostate
RPMI-8226 leukemia = test system: RPMI-8226 leukemia
RXF 393 renal = test system: RXF 393 renal
SF-268 CNS = test system: SF-268 CNS
SF-295 CNS = test system: SF-295 CNS
SF-539 CNS = test system: SF-539 CNS
SK-MEL-2 melanoma = test system: SK-MEL-2 melanoma
SK-MEL-28 melanoma = test system: SK-MEL-28 melanoma
SK-MEL-5 melanoma = test system: SK-MEL-5 melanoma
SK-OV-3 ovarian = test system: SK-OV-3 ovarian
SNB-19 CNS = test system: SNB-19 CNS
SNB-75 CNS = test system: SNB-75 CNS
SR leukemia = test system: SR leukemia
SW-620 colon = test system: SW-620 colon
T-47D breast = test system: T-47D breast
TK-10 renal = test system: TK-10 renal
U251 CNS = test system: U251 CNS
UACC-257 melanoma = test system: UACC-257 melanoma
UACC-62 melanoma = test system: UACC-62 melanoma
UO-31 renal = test system: UO-31 renal

## O=c1[nH]c2ccc(C(F)(F)F)cc2nc1Cc1ccccc1
786-0 renal
  TGI: > 100 µM
A498 renal
  TGI: 66.9 µM
ACHN renal
  TGI: 88.4 µM
BT-549 breast
  TGI: 69.4 µM
CAKI-1 renal
  TGI: > 100 µM
CCRF-CEM leukemia
  TGI: > 100 µM
COLO 205 colon
  TGI: 40.7 µM
DU-145 prostate
  TGI: > 100 µM
EKVX NSCLC
  TGI: > 100 µM
HCC-2998 colon
  TGI: 82.6 µM
HCT-116 colon
  TGI: > 100 µM
HCT-15 colon
  TGI: > 100 µM
HL-60(TB) leukemia
  TGI: > 100 µM
HOP-62 NSCLC
  TGI: > 100 µM
HOP-92 NSCLC
  TGI: 50.4 µM
HS 578T breast
  TGI: 71.3 µM
HT29 colon
  TGI: 68.7 µM
IGROV1 ovarian
  TGI: > 100 µM
K-562 leukemia
  TGI: > 100 µM
KM12 colon
  TGI: > 100 µM
LOX IMVI melanoma
  TGI: > 100 µM
M14 melanoma
  TGI: 97.1 µM
MCF7 breast
  TGI: > 100 µM
MDA-MB-231 breast
  TGI: > 100 µM
MDA-MB-435
  TGI: > 100 µM
MOLT-4 leukemia
  TGI: 46 µM
NCI-H226 lung
  TGI: 50.7 µM
NCI-H23 lung
  TGI: 46.5 µM
NCI-H460 lung
  TGI: > 100 µM
NCI/ADR-RES ovarian
  TGI: 71.2 µM
OVCAR-4 ovarian
  TGI: > 100 µM
OVCAR-8 ovarian
  TGI: > 100 µM
PC-3 prostate
  TGI: 81.3 µM
RPMI-8226 leukemia
  TGI: 87.6 µM
RXF 393 renal
  TGI: 61.6 µM
SF-268 CNS
  TGI: > 100 µM
SF-295 CNS
  TGI: > 100 µM
SF-539 CNS
  TGI: > 100 µM
SK-MEL-2 melanoma
  TGI: 62.6 µM
SK-MEL-28 melanoma
  TGI: > 100 µM
SK-MEL-5 melanoma
  TGI: 60.2 µM
SK-OV-3 ovarian
  TGI: > 100 µM
SNB-19 CNS
  TGI: > 100 µM
SNB-75 CNS
  TGI: > 100 µM
SR leukemia
  TGI: > 100 µM
SW-620 colon
  TGI: > 100 µM
T-47D breast
  TGI: > 100 µM
TK-10 renal
  TGI: > 100 µM
U251 CNS
  TGI: > 100 µM
UACC-257 melanoma
  TGI: > 100 µM
UACC-62 melanoma
  TGI: > 100 µM
UO-31 renal
  TGI: > 100 µM
